Data taken from ChEMBL document CHEMBL1201862, “PubChem BioAssay data set” (2004).
Calls of active or inactive are those of the source.

Tests used:
[1] = target: G2/mitotic-specific cyclin-B1 (Homo sapiens, UniProt P14635); test: Counterscreen assay for inhibitors of Wee1 degradation: dose response cell-based assay to identify inhibitors of cyclin B degradation. [Related pubchem assays: 1410, 1321 ]; format: functional
Wee1-like protein kinase = Wee1-like protein kinase (Homo sapiens, UniProt P30291); test: Dose Response Cell-based Assay for Inhibitors of Wee1 Degradation. [Related pubchem assays: 1410, 1321 ]; format: functional
Chain of Wee1-like protein kinase (P30291 whole entry): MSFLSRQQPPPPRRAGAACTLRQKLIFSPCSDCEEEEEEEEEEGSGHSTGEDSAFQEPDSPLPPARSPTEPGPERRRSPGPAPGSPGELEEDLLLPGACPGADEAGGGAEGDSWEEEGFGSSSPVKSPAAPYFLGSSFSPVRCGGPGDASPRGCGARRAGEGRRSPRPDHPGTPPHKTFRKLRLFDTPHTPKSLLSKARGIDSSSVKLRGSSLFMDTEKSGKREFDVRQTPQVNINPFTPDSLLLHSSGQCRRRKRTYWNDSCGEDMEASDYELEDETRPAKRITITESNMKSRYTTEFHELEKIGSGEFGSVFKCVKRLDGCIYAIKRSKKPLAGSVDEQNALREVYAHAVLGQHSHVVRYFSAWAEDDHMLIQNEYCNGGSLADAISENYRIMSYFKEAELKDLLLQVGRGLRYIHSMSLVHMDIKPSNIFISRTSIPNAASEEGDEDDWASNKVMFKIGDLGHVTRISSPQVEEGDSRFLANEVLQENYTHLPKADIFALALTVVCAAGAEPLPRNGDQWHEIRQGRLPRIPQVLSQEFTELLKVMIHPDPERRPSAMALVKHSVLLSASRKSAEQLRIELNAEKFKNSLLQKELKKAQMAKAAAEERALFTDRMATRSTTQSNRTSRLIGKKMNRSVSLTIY

[2] = luciferase reporter signal suppression in cells – H4 neuroglioma cells, luminescence, dose response (AID 1990); format: functional, cell-based
[3] = luciferase reporter signal reduction – luminescence, H4-C neuroglioblastoma cells, dose response (AID 2458); format: functional, cell-based;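 also: H4 neuroglioblastoma cells stably carrying a luciferase reporter gene fusion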
cells = format: functional, cell-based
[4] = Luminescence Cell-Based Dose Response HTS to Identify Inhibitors of 5'UTR Stem-Loop Driven Prion Protein mRNA Translation in H4 Neuroglioblastoma Cells. [Related pubchem assays: 1827 (Project Summary), 1813 (Primary HTS)]; format: functional
[5] = alpha-synuclein stem-loop luciferase translation blockers – H4 neuroglioma cells, luminescence, confirmation (AID 1988); format: functional, cell-based
[6] = microbe, parasite or virus in culture; format: functional; settings: Mycobacterium tuberculosis
[7] = alpha-synuclein stem-loop translation blockers – luminescence, H4 neuroglioblastoma cells, dose confirmation, confirmation (AID 2454); format: functional, cell-based;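 also: H4 neuroglioblastoma cells carrying an alpha-synuclein 5'UTR luciferase reporter; potency for inhibition of the luciferase signal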
[8] = Counterscreen for IDE inhibitors: Luminescence-based cell-based high throughput dose response assay to identify compounds that are cytotoxic to HEK cells. [Related pubchem assays: 434962 (Primary screen (IDE inhibitors in singlicate)), 449730 (Counterscreen (Cytotoxicity in triplicate)), 435028 (Confirmation (IDE inhibitors in triplicate)) …; format: functional; settings: HEK293
Insulin-degrading enzyme = target: T1, Insulin-degrading enzyme (Homo sapiens, UniProt P14735); test: Dose Response: Fluorescence polarization-based cell-based high throughput dose response assay for inhibitors of insulin-degrading enzyme (IDE). [Related pubchem assays: 434962 (Primary screen (IDE inhibitors in singlicate)), 449730 (Counterscreen (Cytotoxicity in triplicate)), 435028 (Confirmation (IDE inhibitors in triplicate)), 434984 (Summary …; format: functional
T1 sequence (P14735 whole entry): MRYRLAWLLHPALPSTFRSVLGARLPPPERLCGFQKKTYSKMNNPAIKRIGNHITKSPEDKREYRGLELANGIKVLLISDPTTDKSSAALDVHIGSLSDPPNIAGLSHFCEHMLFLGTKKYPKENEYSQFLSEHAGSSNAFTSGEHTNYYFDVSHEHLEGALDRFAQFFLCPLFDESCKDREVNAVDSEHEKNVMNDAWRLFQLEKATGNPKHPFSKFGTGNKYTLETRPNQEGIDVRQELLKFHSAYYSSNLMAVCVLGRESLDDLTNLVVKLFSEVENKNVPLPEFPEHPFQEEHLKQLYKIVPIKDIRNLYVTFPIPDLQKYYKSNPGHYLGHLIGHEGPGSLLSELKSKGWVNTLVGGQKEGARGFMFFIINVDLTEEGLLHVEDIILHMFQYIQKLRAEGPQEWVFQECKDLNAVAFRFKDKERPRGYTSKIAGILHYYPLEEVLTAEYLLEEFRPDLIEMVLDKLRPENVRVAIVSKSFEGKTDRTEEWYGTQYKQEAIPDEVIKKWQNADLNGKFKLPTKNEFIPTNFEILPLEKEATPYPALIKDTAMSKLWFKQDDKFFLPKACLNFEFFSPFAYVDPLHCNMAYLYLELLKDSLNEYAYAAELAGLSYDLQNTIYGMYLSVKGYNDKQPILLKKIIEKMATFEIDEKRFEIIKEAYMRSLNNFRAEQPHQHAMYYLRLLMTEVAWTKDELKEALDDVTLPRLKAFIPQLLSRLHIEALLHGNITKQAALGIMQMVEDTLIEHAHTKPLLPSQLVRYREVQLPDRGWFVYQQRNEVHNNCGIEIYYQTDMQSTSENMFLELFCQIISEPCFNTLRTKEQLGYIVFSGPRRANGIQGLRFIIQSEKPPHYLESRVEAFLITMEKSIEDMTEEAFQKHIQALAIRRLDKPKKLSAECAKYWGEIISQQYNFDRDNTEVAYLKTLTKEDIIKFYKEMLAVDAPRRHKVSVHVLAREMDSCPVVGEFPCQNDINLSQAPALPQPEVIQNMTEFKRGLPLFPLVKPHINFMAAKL

[9] = viability loss in HeLa cells – cytotoxicity control for MgcRacGAP inhibitor project, dose response (AID 624300); format: functional
[10] = target: T2, Rac GTPase-activating protein 1 (Homo sapiens, UniProt Q9H0H5); test: blockers of MgcRacGAP-driven Rac1 GTP hydrolysis – biochemical, ADP Hunter fluorescence, primary and confirmatory, confirmation (AID 624330); format: functional
T2 sequence (Q9H0H5 whole entry): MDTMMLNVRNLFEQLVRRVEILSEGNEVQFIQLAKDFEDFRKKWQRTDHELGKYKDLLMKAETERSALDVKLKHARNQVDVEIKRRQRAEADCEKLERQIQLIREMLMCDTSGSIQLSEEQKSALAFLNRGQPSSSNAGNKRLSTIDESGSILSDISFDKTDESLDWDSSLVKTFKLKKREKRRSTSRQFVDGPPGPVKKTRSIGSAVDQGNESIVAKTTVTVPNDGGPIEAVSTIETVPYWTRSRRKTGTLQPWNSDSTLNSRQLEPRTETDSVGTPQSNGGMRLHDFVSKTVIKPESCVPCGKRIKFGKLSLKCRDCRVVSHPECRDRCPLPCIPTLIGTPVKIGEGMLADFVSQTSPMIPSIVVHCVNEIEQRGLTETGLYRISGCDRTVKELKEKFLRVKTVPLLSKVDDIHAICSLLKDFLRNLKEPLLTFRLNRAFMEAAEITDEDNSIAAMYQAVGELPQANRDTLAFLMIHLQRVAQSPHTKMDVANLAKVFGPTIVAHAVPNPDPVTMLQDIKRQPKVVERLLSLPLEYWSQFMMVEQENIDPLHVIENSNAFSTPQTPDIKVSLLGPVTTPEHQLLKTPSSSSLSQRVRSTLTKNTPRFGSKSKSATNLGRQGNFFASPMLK

Chain of G2/mitotic-specific cyclin-B1 (P14635 whole entry): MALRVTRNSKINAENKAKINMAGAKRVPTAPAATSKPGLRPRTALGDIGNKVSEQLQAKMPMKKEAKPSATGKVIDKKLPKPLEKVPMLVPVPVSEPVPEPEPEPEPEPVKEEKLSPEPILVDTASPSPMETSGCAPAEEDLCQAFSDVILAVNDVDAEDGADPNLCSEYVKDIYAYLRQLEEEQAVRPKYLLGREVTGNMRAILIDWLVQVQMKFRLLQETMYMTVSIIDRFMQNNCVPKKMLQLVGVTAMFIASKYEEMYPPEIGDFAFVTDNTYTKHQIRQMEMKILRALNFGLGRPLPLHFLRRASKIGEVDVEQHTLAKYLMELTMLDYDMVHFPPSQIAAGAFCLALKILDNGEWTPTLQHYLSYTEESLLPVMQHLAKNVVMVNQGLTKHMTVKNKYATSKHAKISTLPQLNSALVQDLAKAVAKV

Structure (SMILES): COc1cc(C2=NOC(C(=O)NCc3cccs3)C2)cc(OC)c1OC (stereo not drawn)
- EC50 [1]: > 49.7 µM (not active)
- EC50 (Wee1-like protein kinase): > 49.7 µM (not active)

Structure (SMILES): Cc1ccc(C(=O)Nc2cccc(C(F)(F)F)c2)cc1Nc1[nH]cnc2ncnc1-2
- EC50 [2]: < 0.1 µM (active)
- EC50 [3]: 1.22 µM (active)
- EC50 (cells): 4.59 µM (active)
- EC50 [4]: 11.8 µM (active)
- EC50 [5]: < 0.1 µM (active)
- CC50 [6]: 34.8 µM (active)
- EC50 [7]: > 12 µM (not active)

Structure (SMILES): COc1ccc(NC2=NC(=O)/C(=C/c3ccc(O)c(OC)c3)S2)cc1
- IC50 [8]: 38.1 µM (not active)
- IC50 (Insulin-degrading enzyme): > 6.22 µM (active)
- CC50 [9]: 95.4 µM (active)
- IC50 [10]: 17.9 µM (active)
